The values below come from article PMC8846360, “Structural Optimization and Improving Antitumor Potential of Moreollic Acid from Gamboge” (Molecules, 2022).

In experiment [1] the test system is human esophageal cancer cells (KYSE30). The experiment can be described thus: CCK-8 cell proliferation assay, KYSE30. Format: cell-based. As to conditions: KYSE-30, 48 h, read-out: Inhibition rates (%) KYSE30. Here is the method:
(§1) Initially, the target compounds were evaluated for antiproliferative activities against human non-small-cell lung cancer cells (A549), human breast cancer cells (MDA-MB-231), human esophageal cancer cells (KYSE30), and human colon cancer cells (HCT-116) at 5 μM. All of them were tested by the CCK-8 assay using 5-Fu as the positive control.
(§2) To investigate the effects of compounds on tumor cells’ proliferation, the cell proliferation assay was performed using the Cell Counting Kit-8 (#40203ES60, Yeasen, Shanghai, China). In brief, cells were seeded in a 96-well plate at 3 × 10^3 cells per well and cultured overnight. Then, the medium was replaced with fresh DMEM medium containing various concentrations of compounds or vehicle. After 48 h of incubation, the medium was exchanged with 100 μL of FBS-free DMEM medium supplemented with 10 μL of CCK8 added to each well and incubated at 37 °C for another 2 h. Absorbance at 450 nm was measured with a microplate reader (Thermo). The experiments were performed in triplicate. The mean ± SD values presented in the figures were calculated from three independent experiments. Comparisons between groups were evaluated using GraphPad Prism version 7.0 software. p < 0.05 was considered statistically significant.

The test system of experiment [2] is human colon cancer cells (HCT-116). The experiment can be described thus: CCK-8 cell proliferation assay, HCT-116. Format: cell-based. Here is the method:
as §1
(§3) To further assess the antitumor activities of synthesized compounds against human colon cancer cells, the effects of each synthesized compound on the viability of two additional human colon cancer cells (SW620, DLD1) were evaluated, and normal human colonic epithelial cells (NCM460) were used as a control. It is obvious that all the synthesized compounds display potential antitumor activities against HCT116, DLD1, and SW620 cells. […] In addition, for SW620, the activities of most optimized compounds were slightly stronger than that of 5-Fu.
(§4) HCT116, SW620, and DLD1 were purchased from American Type Culture Collection (ATCC). SW620 and DLD1 were cultured in Dulbecco’s Modified Eagles medium (Thermo), and HCT116 was cultured in McCoy’s 5A medium (Thermo). All media were supplemented with 10% fetal bovine serum (Thermo) and 1% penicillin/streptomycin. All the cells were passaged at approximately 80% confluency. Cells were tested for mycoplasma every two months, and only mycoplasma-negative cells were used
as §2
Background: Formazan colour is commonly taken as a measure of viable cells.

The test system of experiment [3] is normal human colonic epithelial cells (NCM460). The experiment can be described thus: CCK-8 cell proliferation assay, NCM460. Format: cell-based. The note with it: NCM460, CCK-8, 48 h, normal colonic epithelial cells, read-out: IC50 ± SD NCM460. Here is the method: as §3, §2
In experiment [4] the test system is CyclinD1, CDK6, CDK4, p-Rb in SW620 cells. Description: Immunoblot of cell-cycle regulatory proteins, SW620. Format: cell-based, human. The note with it: indicated concentrations, 48 h. As for the experimental part: (§5) Additionally, flow cytometric analyses were performed to determine cell-cycle distribution, where 400 ng/mL of nocodazole was used to synchronize cells in G2/M phase.
(§6) When 80% confluency was reached, cells were seeded into a 6-well plate at 3 × 10^6 cells per well and allowed to attach overnight. Then, the cells were treated with different concentrations of TH12-10 or vehicle for 48 h. Cells were lysed in RIPA buffer (#89900, Thermo, Waltham, MA, USA) supplemented with protease inhibitor cocktail (#B14002, Bimake, Houston, TX, USA) on ice for 30 min and centrifuged at 12,000 rpm for 10 min at 4 °C. Protein concentration was determined by the BCA kit and equal amounts of lysates were separated by SDS-polyacrylamide gels, and transferred to nitrocellulose membranes (#HATF00010, Millipore, Burlington, MA, USA). Then, the membranes were blocked with 5% milk in TBST for 1 h and probed with the indicated antibodies. […]
(§7) Figure 3 TH12-10 blocks S phase entry. […] (D) Quantitative analysis of DLD1 cells in G1 phase as described in (C). […]

In the next experiment the test system is DLD1 cells. The experiment can be described thus: Flow cytometric cell-cycle distribution, DLD1. As to conditions: 6 h after nocodazole (400 ng/mL), flow cytometry. Format: cell-based, human. Here is the method: as §5
Figure 3 TH12-10 blocks S phase entry. (A) Immunoblot analysis of Cyclin D1, CDK4, CDK6, and p-Rb in SW620 and DLD1 cells treated with indicated concentrations of TH12-10 for 48 h. (B) Densitometry analysis of indicated proteins as described in (A) was performed using Image J software. […] (D) Quantitative analysis of DLD1 cells in G1 phase as described in (C). All data are presented as means ± SD of three independent experiments. * p < 0.05, ** p < 0.01, *** p < 0.001. N.S., not significant. Differences were tested using one-way ANOVA (B) or the unpaired t-test with Welch’s correction (D).
(In general: In flow cytometry, cells or beads pass a laser one at a time.)

The subject of experiment [5] is human colon cancer cells (DLD1). Description: CCK-8 cell proliferation assay, DLD1. Format: cell-based. As to conditions: DLD-1, CCK-8, 48 h, read-out: IC50 ± SD DLD1. As for the experimental part:
as §3, §4, §2

Experiment [6] concerns CyclinD1, CDK6, CDK4, p-Rb in NCM460 cells. Description: Immunoblot of cell-cycle regulatory proteins, NCM460. Format: cell-based, human. The note with it: indicated concentrations, 48 h. Here is the method: as §5, §6
Figure 4 The contribution of TH12-10 to the cell cycle. […] (D) Quantitative analysis of NCM460 cells in G1 phase as described in (C). […]
(A western blot detects proteins with antibodies after separation by electrophoresis.)

The test system of experiment [7] is CyclinD1, CDK6, CDK4, p-Rb in DLD1 cells. The experiment can be described thus: Immunoblot of cell-cycle regulatory proteins, DLD1. The note with it: indicated concentrations, 48 h. Format: cell-based, human. As for the experimental part: as §5, §6, §7
Experiment [8] relates to human colon cancer cells (SW620). Description: CCK-8 cell proliferation assay, SW620. Format: cell-based. As to conditions: SW-620, CCK-8, 48 h, read-out: IC50 ± SD SW620. Here is the method:
as §3, §4, §2

Experiment [9] relates to human breast cancer cells (MDA-MB-231). The experiment can be described thus: CCK-8 cell proliferation assay, MDA-MB-231. Format: cell-based. As to conditions: 48 h, read-out: Inhibition rates (%) MDA-MB-231. As for the experimental part:
as §1, §2

Experiment [10] has as its system human non-small-cell lung cancer cells (A549). The experiment can be described thus: CCK-8 cell proliferation assay, A549. Format: cell-based. The note with it: 48 h, read-out: Inhibition rates (%) A549. Here is the method:
as §1, §2

With `COC1C2CC3C(C)(C)OC(CC=C(C)C(=O)N4CCS(=O)(=O)CC4)(C2=O)C32Oc3c(CC=C(C)C)c4c(c(O)c3C(=O)C12)C=CC(C)(C)O4` (stereo not drawn) [TH12-10], the inhibition at 5 µM in experiment [1] was found to be 3.65 ± 2.44%; in experiment [2] (HCT-116, 5 μM, CCK-8, 48 h, read-out: Inhibition rates (%) HCT-116), 88.1 ± 2.78%; in experiment [9], 8.09 ± 0.28%; in experiment [10], 6.85 ± 2.16%. Moreover, the IC50 was found to be 830 ± 100 nM in [2] (HCT-116, CCK-8, 48 h, read-out: IC50 ± SD HCT116); 4080 ± 110 nM in [3]; 1100 ± 190 nM in experiment [5]; 790 ± 120 nM in experiment [8]. Further, the “expression of CyclinD1, CDK6, CDK4 and p-Rb” value was “significantly decreased” in [4], “no significant change” in [6] and “significantly decreased” in [7]. Further, the “percentage of cells in the G1 phase vs blank control” value in the experiment with DLD1 cells is recorded as “significantly higher”.

For orientation: inhibition means the share of the control response that was lost under treatment. By IC50 is commonly meant the midpoint of a concentration-inhibition curve.
